Measurements from ChEMBL document CHEMBL1140278, “Induction of apoptosis by a novel indirubin-5-nitro-3'-monoxime, a CDK inhibitor, in human lung cancer cells” (Bioorg Med Chem Lett, 2005).

Key:
HT-1080 = test: Inhibitory activity on the proliferation of Human fibrosarcoma HT1080 cancer cells using MTT or sulforhodamine B assay; format: functional, cell-based
HL-60 = test: Inhibitory activity on the proliferation of Human myeloid leukemia HL-60 cancer cells using MTT or sulforhodamine B assay; format: functional, cell-based
A549 [1] = test: Inhibitory activity on the proliferation of Human lung carcinoma A549 cancer cells using MTT or sulforhodamine B assay; format: functional, cell-based
[2] = Inhibitory activity on the proliferation of Human colon carcinoma […] cancer cells using MTT or sulforhodamine B assay; format: functional, cell-based; conditions: Cancer cell lines
A549 [3] = test: Effect of compound on cell cycle progression in Human lung A549 cancer cells at G2/M phase after 8 hours of administration; format: functional
A549 [4] = test: Effect of compound on cell cycle progression in Human lung A549 cancer cells at S phase after 8 hours of administration; format: functional
A549 [5] = test: Effect of compound on cell cycle progression in Human lung A549 cancer cells at G0/G1 phase after 16 hours of administration; format: functional
A549 [6] = test: Effect of compound on cell cycle progression in Human lung A549 cancer cells at G0/G1 phase after 8 hours of administration; format: functional
A549 [7] = test: Effect of compound on cell cycle progression in Human lung A549 cancer cells at G2/M phase after 24 hours of administration; format: functional
A549 [8] = test: Effect of compound on cell cycle progression in Human lung A549 cancer cells at Sub-G0 phase after 24 hours of administration; format: functional
A549 [9] = test: Effect of compound on cell cycle progression in Human lung A549 cancer cells at G0/G1 phase after 24 hours of administration; format: functional
A549 [10] = test: Effect of compound on cell cycle progression in Human lung A549 cancer cells at S phase after 16 hours of administration; format: functional
A549 [11] = test: Effect of compound on cell cycle progression in Human lung A549 cancer cells at Sub-G0 phase after 8 hours of administration; format: functional
A549 [12] = test: Effect of compound on cell cycle progression in Human lung A549 cancer cells at S phase after 24 hours of administration; format: functional
A549 [13] = test: Effect of compound on cell cycle progression in Human lung A549 cancer cells at Sub-G0 phase after 16 hours of administration; format: functional
A549 [14] = test: Effect of compound on cell cycle progression in Human lung A549 cancer cells at G2/M phase after 16 hours of administration; format: functional

SMILES: O=C1C(c2c(O)[nH]c3ccc(S(=O)(=O)O)cc23)=Nc2ccccc21
- IC50 (HT-1080): > 100 µM
- IC50 (HL-60): > 100 µM
- IC50 (A549 [1]): > 100 µM
- IC50 [2]: > 100 µM

SMILES: O=Nc1c(-c2c(O)[nH]c3ccc([N+](=O)[O-])cc23)[nH]c2ccccc12
- Activity (A549 [3]): 27.1%
- Activity (A549 [4]): 26.8%
- Activity (A549 [5]): 46.5%
- IC50 (HT-1080): 5.9 µM
- Activity (A549 [6]): 46.1%
- Activity (A549 [7]): 22%
- IC50 (HL-60): 9.2 µM
- Activity (A549 [8]): 22%
- IC50 (A549 [1]): 5.4 µM
- Activity (A549 [9]): 39.9%
- Activity (A549 [10]): 31.8%
- Activity (A549 [11]): 0%
- Activity (A549 [12]): 16.1%
- Activity (A549 [13]): 0%
- IC50 [2]: 25.5 µM
- Activity (A549 [14]): 21.7%

SMILES: O=Nc1c(-c2c(O)[nH]c3ccccc23)[nH]c2ccccc12 [INDIRUBIN-3-MONOXIME]
- IC50 (HT-1080): 4.8 µM
- IC50 (HL-60): > 100 µM
- IC50 (A549 [1]): 62 µM
- IC50 [2]: > 100 µM

SMILES: O=C1Nc2ccccc2/C1=C1/Nc2ccccc2C1=O [INDIRUBIN]
- IC50 (HT-1080): 42.2 µM
- IC50 (HL-60): > 100 µM
- IC50 (A549 [1]): 31 µM
- IC50 [2]: > 100 µM
